In patent publication US11279737B2, “Antimicrobial peptide variants and uses thereof” (ANTINBIO, INC., priority 2019, dated 2022):
Values after ≈ are worked out from the molar mass of the structure shown. Where a SMILES comes first, the peptide text is derived from it. Bridges are numbered along the chain shown (N, C = ends).

Columns and labels:
S. aureus ATCC 6538 [1] = conditions: for Minimal inhibitory concentration (MIC): ATCC 6538; for antimicrobial activity compared to wild type hegrisin (in words): S. aureus ATCC 6538, lower MIC values
[2] = tested on: S. aureus MRSA ATCC 43300; conditions: for Minimal inhibitory concentration (MIC): ATCC 43300
[3] = tested on: S. epidermidis ATCC 14990; conditions: ATCC 14990
S. aureus ATCC 6538 [4] = assay: inhibition zone assay; conditions: 10 μg peptide per hole, 37° C., 16-18 hours

Compound | Minimal inhibitory concentration (MIC) (S. aureus ATCC 6538 [1]) [µg/mL] | antimicrobial activity compared to wild type hegrisin (in words) (S. aureus ATCC 6538 [1]) | Minimal inhibitory concentration (MIC) [2] [µg/mL] | Minimal inhibitory concentration (MIC) [3] [µg/mL] | Activity (antimicrobial activity relative to unmodified hegrisin, zones of growth inhibition) (S. aureus ATCC 6538 [4]) | antimicrobial activity compared to wild type hegrisin (in words) ([2]; S. aureus MRSA ATCC 43300)
CC[C@H](C)[C@@H]1NC(=O)CNC(=O)CNC(=O)[C@H](Cc2ccccc2)NC(=O)[C@H](CCCCN)NC(=O)[C@@H]2CSSC[C@H](NC(=O)[C@H](CO)NC(=O)[C@H](Cc3c[nH]c4ccccc34)NC(=O)CN)C(=O)N[C@@H](CC(N)=O)C(=O)N[C@@H]([C@@H](C)CC)C(=O)N[C@@H](Cc3c[nH]c4ccccc34)C(=O)NCC(=O)NCC(=O)N[C@@H](CC(N)=O)C(=O)N[C@@H](CC(=O)O)C(=O)N[C@@H](CCC(=O)O)C(=O)N3CCC[C@H]3C(=O)N[C@H]3CSSC[C@H](NC1=O)C(=O)N[C@@H](CCCCN)C(=O)N[C@H](C(=O)N[C@@H](Cc1ccc(O)cc1)C(=O)O)CSSC[C@H](NC(=O)[C@H](Cc1c[nH]cn1)NC(=O)[C@H](CCC(N)=O)NC(=O)[C@H](Cc1c[nH]cn1)NC3=O)C(=O)N[C@@H](CCCCN)C(=O)N[C@@H](CO)C(=O)N[C@@H]([C@@H](C)CC)C(=O)N[C@@H](CCCNC(=N)N)C(=O)NCC(=O)N[C@@H](Cc1ccc(O)cc1)C(=O)N[C@@H](CCCNC(=N)N)C(=O)NCC(=O)NCC(=O)N[C@@H](Cc1ccc(O)cc1)C(=O)N2 [HCN2016-02] (H-GWSCNIWGGNDEPCHQHCKSIRGYRGGYCKFGGICKCY-OH; disulfide 4-29, 14-35, 18-37 (inferred); N-terminus and C-terminus assumed) | 1.40 (≈ 0.327 µM) | improved antimicrobial activity | 2.80 (≈ 0.654 µM) | 1.40 (≈ 0.327 µM) | 2 | 
CC[C@H](C)[C@@H]1NC(=O)[C@H](CO)NC(=O)[C@H](CCCCN)NC(=O)[C@@H]2CSSC[C@@H](C(=O)N[C@@H](Cc3ccc(O)cc3)C(=O)O)NC(=O)[C@H](CCCCN)NC(=O)[C@@H]3CSSC[C@H](NC(=O)[C@@H]4CCCN4C(=O)[C@H](CCCCN)NC(=O)[C@H](CC(=O)O)NC(=O)[C@H](CC(N)=O)NC(=O)CNC(=O)CNC(=O)[C@H](Cc4ccccc4)NC(=O)[C@H]([C@@H](C)CC)NC(=O)[C@H]([C@@H](C)O)NC(=O)[C@@H](NC(=O)CNC(=O)[C@H](Cc4ccccc4)NC(=O)CN)CSSC[C@H](NC(=O)[C@H](Cc4ccc(O)cc4)NC(=O)CNC(=O)CNC(=O)[C@H](CCCCN)NC(=O)[C@H](Cc4ccc(O)cc4)NC(=O)CNC(=O)[C@H](CCCCN)NC1=O)C(=O)N[C@@H](CCCCN)C(=O)N[C@@H](C(C)C)C(=O)NCC(=O)NCC(=O)N[C@@H](C(C)C)C(=O)N3)C(=O)N[C@@H](Cc1c[nH]cn1)C(=O)N[C@@H](CCCNC(=N)N)C(=O)N[C@@H](Cc1c[nH]cn1)C(=O)N2 [HCN2016-03] (H-GFGCTIFGGNDKPCHRHCKSIKGYKGGYCKVGGVCKCY-OH; disulfide 4-29, 14-35, 18-37 (inferred); N-terminus and C-terminus assumed) | 1.33 (≈ 0.327 µM) | improved antimicrobial activity | 0.81 (≈ 0.199 µM) | 1.30 (≈ 0.32 µM) | 2 | improved antimicrobial activity
